In data set [1] the test system is T1, Nc1ncnc2c1ncn2[C@@H]1O[C@H](COP(=O)(O)OP(=O)(O)OP(=O)(O)O)[C@@H](O)[C@H]1O.
T1 construct: full-length WT rho in pET21b (pRS96; NdeI/XhoI), C-terminal His-tag kept, expressed in E. coli BL21(DE3) (I382N in BL21SI), Ni-NTA and heparin-Sepharose; homo-hexamer; 419 residues natural length
The experiment in a line: ATPase assay, Pi release by TLC, Lineweaver-Burk. Type of data set: biochemical, Escherichia coli. The conditions noted are these: poly(C) 10 μM as cofactor, 5 nM Rho, 25 mM Tris-HCl pH 8.0, 50 mM KCl, 5 mM MgCl2, 1 mM DTT, 0.1 mg/ml BSA, 30 °C. The text has this:
ATPase assay, Pi release by TLC, Lineweaver-Burk on Rho

Data set [2] addresses T2, Rho (Escherichia coli, UniProt P0AG30, G51V).
T2 construct: full-length WT rho in pET21b (pRS96; NdeI/XhoI), C-terminal His-tag kept, expressed in E. coli BL21(DE3) (I382N in BL21SI), Ni-NTA and heparin-Sepharose; homo-hexamer; 419 residues natural length
Briefly: UV cross-linking of [γ-32P]ATP, SDS-PAGE, hyperbolic fit. The data set is classed as binding. The conditions noted are these: read-out: Kd, app. The text has this:
(§1) UV cross-linking of [γ-32P]ATP, SDS-PAGE, hyperbolic fit on Rho

The target in data set [3] is T3, Rho (Escherichia coli, UniProt P0AG30, P279S).
T3 construct: full-length WT rho in pET21b (pRS96; NdeI/XhoI), C-terminal His-tag kept, expressed in E. coli BL21(DE3) (I382N in BL21SI), Ni-NTA and heparin-Sepharose; homo-hexamer; 419 residues natural length
The description is as above. The data set is classed as binding. The conditions noted are these: read-out: Kd, app.
Source text: as §1

The target in data set [4] is T4, Rho (Escherichia coli, UniProt P0AG30, G324D).
T4 construct: full-length WT rho in pET21b (pRS96; NdeI/XhoI), C-terminal His-tag kept, expressed in E. coli BL21(DE3) (I382N in BL21SI), Ni-NTA and heparin-Sepharose; homo-hexamer; 419 residues natural length
Described as above. Type of data set: binding. The conditions noted are these: read-out: Kd, app.
Source text: as §1

The target of data set [5] is T5, Rho (Escherichia coli, UniProt P0AG30, I382N).
T5 construct: full-length WT rho in pET21b (pRS96; NdeI/XhoI), C-terminal His-tag kept, expressed in E. coli BL21(DE3) (I382N in BL21SI), Ni-NTA and heparin-Sepharose; homo-hexamer; 419 residues natural length
The data set is described as above. The data set is classed as binding. The conditions noted are these: read-out: Kd, app.
Source text: as §1

Data set [6] addresses T6, Rho (Escherichia coli, UniProt P0AG30, N340S).
T6 construct: full-length WT rho in pET21b (pRS96; NdeI/XhoI), C-terminal His-tag kept, expressed in E. coli BL21(DE3) (I382N in BL21SI), Ni-NTA and heparin-Sepharose; homo-hexamer; 419 residues natural length
The data set is described as above. The data set is classed as binding. The conditions noted are these: read-out: Kd, app.
Source text: as §1

Data set [7] deals with T7, Rho (Escherichia coli, UniProt P0AG30, Y274D).
T7 construct: full-length WT rho in pET21b (pRS96; NdeI/XhoI), C-terminal His-tag kept, expressed in E. coli BL21(DE3) (I382N in BL21SI), Ni-NTA and heparin-Sepharose; homo-hexamer; 419 residues natural length
The data set is described as above. The data set is classed as binding. The conditions noted are these: read-out: Kd, app.
Source text: as §1

T2 sequence (P0AG30 whole entry G51V): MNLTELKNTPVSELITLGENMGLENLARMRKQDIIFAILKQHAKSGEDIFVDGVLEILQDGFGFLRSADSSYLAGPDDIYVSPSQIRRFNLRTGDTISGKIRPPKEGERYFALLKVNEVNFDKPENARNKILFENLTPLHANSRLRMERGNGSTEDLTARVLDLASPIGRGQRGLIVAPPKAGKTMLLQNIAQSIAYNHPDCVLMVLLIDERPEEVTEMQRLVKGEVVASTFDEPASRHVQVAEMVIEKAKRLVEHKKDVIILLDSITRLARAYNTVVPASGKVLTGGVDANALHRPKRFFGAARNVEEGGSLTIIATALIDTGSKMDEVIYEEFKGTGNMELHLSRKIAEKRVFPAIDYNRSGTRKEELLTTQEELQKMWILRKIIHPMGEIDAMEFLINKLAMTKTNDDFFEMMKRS
T7 sequence (P0AG30 whole entry Y274D): as the sequence (P0AG30 whole entry G51V) above, with V51G, Y274D counted along it
T3 sequence (P0AG30 whole entry P279S): as the sequence (P0AG30 whole entry G51V) above, with V51G, P279S counted along it
T5 sequence (P0AG30 whole entry I382N): as the sequence (P0AG30 whole entry G51V) above, with V51G, I382N counted along it
T6 sequence (P0AG30 whole entry N340S): as the sequence (P0AG30 whole entry G51V) above, with V51G, N340S counted along it
T4 sequence (P0AG30 whole entry G324D): as the sequence (P0AG30 whole entry G51V) above, with V51G, G324D counted along it

For Rho (Escherichia coli K-12; Y80C), in data set [1], the Km was found to be 43.2 ± 0.8 µM.
As for `Nc1ncnc2c1ncn2[C@@H]1O[C@H](COP(=O)(O)OP(=O)(O)OP(=O)(O)O)[C@@H](O)[C@H]1O` [ATP], the Kd in data set [2] was 1350 ± 260 nM; in data set [3], 4280 ± 540 nM; in data set [4], 2450 ± 150 nM; in data set [5] it was 600 ± 100 nM; in data set [6] it was 1090 ± 120 nM; in data set [7], 3150 ± 260 nM.

The record behind these values is publication PMC1950744, “Transcription Termination Defective Mutants of Rho: Role of Different Functions of Rho in Releasing RNA from the Elongation Complex” (Journal of Molecular Biology, 2007).
